This test concerns the target T1, Dappu-RPCHR (Daphnia pulex RPCH receptor) (Daphnia pulex, UniProt A0A240FBD5).
T1 sequence (A0A240FBD5 1-451): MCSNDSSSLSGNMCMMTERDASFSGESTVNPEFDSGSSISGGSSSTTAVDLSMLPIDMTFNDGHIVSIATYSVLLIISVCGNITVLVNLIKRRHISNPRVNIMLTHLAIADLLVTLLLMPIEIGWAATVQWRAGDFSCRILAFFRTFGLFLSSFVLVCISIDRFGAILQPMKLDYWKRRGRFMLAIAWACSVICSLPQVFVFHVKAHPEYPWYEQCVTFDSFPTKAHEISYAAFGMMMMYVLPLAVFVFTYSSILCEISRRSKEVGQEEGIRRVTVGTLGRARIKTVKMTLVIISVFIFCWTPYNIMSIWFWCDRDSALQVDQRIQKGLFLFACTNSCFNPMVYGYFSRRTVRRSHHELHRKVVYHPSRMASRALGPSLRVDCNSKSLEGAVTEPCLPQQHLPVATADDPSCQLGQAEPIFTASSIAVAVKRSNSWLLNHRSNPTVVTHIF
The test is described as follows: in vitro cell-based bioluminescence (aequorin Ca2+) assay on Dappu-RPCHR expressing CHO-WTA11 cells. As to conditions: for fold lower affinity / potency relative to Dappu-RPCH: from EC50 values. The method, then: Pharmacological analyses were performed in Chinese hamster ovary (CHO) WTA11 cells stably co-expressing the bioluminescent protein apoaequorin and the promiscuous Gα16 subunit, which couples most agonist-induced GPCRs to the phospholipase C and Ca^2+ pathway, irrespective of their natural signalling cascade.
CHO-WTA11 cells were cultured in monolayers in Dulbecco’s Modified Eagles Medium nutrient mixture F12-Ham (DMEM/F12) with L-glutamine, 15 mM HEPES, sodium bicarbonate and phenol red (Sigma-Aldrich) supplemented with 100 IU/ml penicillin and 100 µg/ml streptomycin (Gibco), 10% heat-inactivated fetal bovine serum (Gibco) and […] zeocin (Gibco). All cells were maintained in an incubator at 37 °C with a constant supply of 5% CO2.
Transfections with pcDNA3.1-Dappu-RPCHR or empty pcDNA3.1 vector were carried out in T75 flasks at 60–80% confluency. Transfection medium was prepared using the Lipofectamine LTX Kit (Invitrogen) with 2.5 ml Opti-MEM® (Gibco), 12.5 µl PlusTM Reagent and 5 µg vector construct in 5 ml polystyrene round-bottom tubes. After a 5 min incubation period at room temperature, 30 µl LTX was added to the medium. After a further incubation period of 30 min at room temperature, the medium was removed and DNA/LTX mix was added dropwise to the cells followed by 3 ml of fresh complete medium.
Following transfection, cells were incubated overnight (37 °C, 5% CO2), then 10 ml of cell medium was added followed by a second overnight incubation (37 °C, 5% CO2). Ligand-induced changes in intracellular Ca^2+ were then monitored in the cells as described below.
CHO-WTA11 cells transfected with receptor construct (or empty vector) plasmid were detached with PBS, complemented with 0.2% EDTA (pH 8.0), and rinsed off the flask with DMEM/F12 with L-glutamine and 15 mM HEPES (Sigma-Aldrich). The number of viable and nonviable cells was determined using a TC20 automated Cell Counter (BIO-RAD). The cells were pelleted for 5 minutes at 800 rpm and resuspended to a density of 5.10^6 cells/ml in sterile filtered bovine serum albumin (BSA) medium (DMEM/F12 with L-glutamine and 15 mM Hepes, supplemented with 0.1% BSA) and loaded with 5 µM Coelenterazine_h (Invitrogen) for 4 h in the dark, at room temperature, while gently shaking to reconstitute the holo-enzyme aequorin. After a 10-fold dilution, cell solution (50 µl) was delivered to each well in a 96-well plate (~25000 cells/well) and cells were exposed to potential ligands reconstituted in BSA medium and distributed across the plate. In every row, BSA medium alone was placed in one well to serve as the negative control (blank). The Ca^2+ response was recorded for 30 s on a Mithras LB 940 (Berthold Technologies). After 30 s, 0.1% Triton X-100, a non-ionic surfactant, was added to the same well to measure the total cellular Ca^2+ response. The total response (ligand + Triton X-100), which is directly related to the number of cells present in the well, was used to normalise the response. The response of each negative control was subtracted from the luminescence obtained for wells within the same row. Calculations were made using the output file from the Microwin software (Berthold Technologies) in Excel (Microsoft). Further analysis was done in GraphPad Prism 5.

Setting [1] is: Table 2, analogues of Dappu-RPCH.
[2] abbreviates: Table 1, AKH/RPCH and related peptides, calculated from dose-response curves.

Entries after “also recorded” stand apart in the source; their conditions may differ. Where a SMILES comes first, the peptide text is derived from it. [ ]: non-standard residue; d: D form. pGlu = O=C1CC[C@@H](C(=O)O)N1

Under setting [1], `CC(C)[C@H](NC(=O)[C@@H]1CCC(=O)N1)C(=O)N[C@@H](CC(N)=O)C(=O)N[C@@H](C)C(=O)N[C@@H](CO)C(=O)N[C@H](C(=O)N[C@@H](CO)C(=O)N[C@@H](Cc1c[nH]c2ccccc12)C(N)=O)[C@@H](C)O` [[Ala^4]Dappu-RPCH, pQVNASTSWamide] ([pGlu]VNASTSW-NH2) yielded an EC50 of 299 nM.
As to `CC(C)[C@H](NC(=O)[C@@H]1CCC(=O)N1)C(=O)N[C@@H](CC(N)=O)C(=O)N[C@@H](Cc1ccccc1)C(=O)N[C@@H](CO)C(=O)N[C@H](C(=O)N[C@@H](CCCCN)C(=O)N[C@@H](Cc1c[nH]c2ccccc12)C(N)=O)[C@@H](C)O` [Argsi-RPCH, pQVNFSTKWamide] ([pGlu]VNFSTKW-NH2), under setting [2], the EC50 is 21.3 nM.
Take `CC(C)C[C@H](NC(=O)[C@@H]1CCC(=O)N1)C(=O)N[C@@H](CC(N)=O)C(=O)N[C@@H](Cc1ccccc1)C(=O)N[C@@H](CO)C(=O)N1CCC[C@H]1C(=O)NCC(=O)N[C@@H](Cc1c[nH]c2ccccc12)C(N)=O` [Panbo-RPCH, pQLNFSPGWamide] ([pGlu]LNFSPGW-NH2): the EC50 under setting [2] was 7.93 nM.
`CC(C)[C@H](NC(=O)[C@@H]1CCC(=O)N1)C(=O)N[C@@H](CC(N)=O)C(=O)N[C@@H](Cc1ccccc1)C(=O)N[C@@H](CO)C(=O)N[C@H](C(=O)N[C@@H](CO)C(=O)N[C@@H](Cc1c[nH]c2ccccc12)C(=O)O)[C@@H](C)O` [[Trp-OH]Dappu-RPCH, pQVNFSTSW-OH] ([pGlu]VNFSTSW-OH): the “fold lower affinity / potency relative to Dappu-RPCH” value was 270 fold. This molecule registered an EC50 under setting [1] of 17.4 nM.
Take `C[C@H](NC(=O)[C@@H]1CCC(=O)N1)C(=O)N[C@@H](CC(N)=O)C(=O)N[C@@H](Cc1ccccc1)C(=O)N[C@@H](CO)C(=O)N[C@H](C(=O)N[C@@H](CO)C(=O)N[C@@H](Cc1c[nH]c2ccccc12)C(N)=O)[C@@H](C)O` [[Ala^2]Dappu-RPCH, pQANFSTSWamide] ([pGlu]ANFSTSW-NH2): the EC50 under setting [1] was 17.7 nM.
As for `CC(C)[C@H](NC(=O)[C@@H]1CCC(=O)N1)C(=O)N[C@@H](CC(N)=O)C(=O)N[C@@H](Cc1ccccc1)C(=O)N[C@H](C(=O)N1CCC[C@H]1C(=O)N[C@@H](CO)C(=O)N[C@@H](Cc1c[nH]c2ccccc12)C(N)=O)[C@@H](C)O` [Libau-AKH, pQVNFTPSWamide] ([pGlu]VNFTPSW-NH2), the EC50 under setting [2] is 0.179 nM.
For the molecule `CC(C)[C@H](NC(=O)[C@@H]1CCC(=O)N1)C(=O)N[C@@H](C)C(=O)N[C@@H](Cc1ccccc1)C(=O)N[C@@H](CO)C(=O)N[C@H](C(=O)N[C@@H](CO)C(=O)N[C@@H](Cc1c[nH]c2ccccc12)C(N)=O)[C@@H](C)O` [[Ala^3]Dappu-RPCH, pQVAFSTSWamide] ([pGlu]VAFSTSW-NH2), a half-maximal response under setting [1] (EC50) required 156 nM.
Regarding `CC(=O)N[C@@H](C)C(=O)N[C@H](C(=O)N[C@@H](CC(N)=O)C(=O)N[C@@H](Cc1ccccc1)C(=O)N[C@@H](CO)C(=O)N[C@H](C(=O)N[C@@H](CO)C(=O)N[C@@H](Cc1c[nH]c2ccccc12)C(N)=O)[C@@H](C)O)C(C)C` [[N-Ac-Ala^1]Dappu-RPCH, [NAc-Ala]-VNFSTSWamide] (Ac-AVNFSTSW-NH2), the “fold lower affinity / potency relative to Dappu-RPCH” value amounted to 750 fold. The EC50 under setting [1] was 48.7 nM.
`CC(C)[C@H](NC(=O)[C@@H]1CCC(=O)N1)C(=O)N[C@@H](CC(N)=O)C(=O)N[C@@H](Cc1ccccc1)C(=O)N[C@@H](CO)C(=O)N[C@H](C(=O)N[C@@H](CO)C(=O)N[C@@H](C)C(N)=O)[C@@H](C)O` [[Ala^8]Dappu-RPCH, pQVNFSTSAamide] ([pGlu]VNFSTSA-NH2): it took 131 nM to reach a half-maximal effect under setting [1] (EC50).
As to pQTFQYSRGWTNamide [Dappu-Crz], the “activation of Dappu-RPCHR (in words)” value (Locmi-ACP statement at 10 µM) is recorded as “did not activate the receptor; also recorded: could not activate the Dappu-RPCHR at all”.
As to `CC(C)C[C@H](NC(=O)[C@@H]1CCC(=O)N1)C(=O)N[C@@H](CC(N)=O)C(=O)N[C@@H](Cc1ccccc1)C(=O)N[C@@H](CO)C(=O)N1CCC[C@H]1C(=O)N[C@@H](CO)C(=O)N[C@@H](Cc1c[nH]c2ccccc12)C(N)=O` [Corpu-AKH, pQLNFSPSWamide] ([pGlu]LNFSPSW-NH2), the “EC50 values (in words)” value is given as “more or less the same as for Anaim-AKH”. In addition, the EC50 under setting [2] was 0.212 nM.

One may read the EC50 as the concentration giving half of the maximal effect.

(Values after PMC5537346, “Characterisation and pharmacological analysis of a crustacean G protein-coupled receptor: the red pigment-concentrating hormone receptor of Daphnia pulex” (Scientific Reports, 2017).)
